Experiments:
[1] = organism: Rattus norvegicus; test: Percent decrease in activity for the inhibition of [3H]naltrexone in rat brain homogenates in the presence of NaCl and MnCl2 at dose of 10 nM compared with that of control (5840+/-72 cpm).; type: functional
[2] = organism: Mus musculus; test: Percent analgesia of compound was measured in mice by using tail-flick assay; type: functional
[3] = organism: Rattus norvegicus; test: Percent decrease in activity for the inhibition of [3H]naltrexone in rat brain homogenates in the presence of NaCl at dose of 10 nM compared with that of control (6070+/-75 cpm).; type: functional
[4] = organism: Rattus norvegicus; test: The compound was tested in vitro for the inhibition of [3H]naltrexone in rat brain homogenates in the presence of NaCl and MnCl2 at 4 nM dose.; type: functional, organism-based
[5] = organism: Rattus norvegicus; test: The compound was tested in vitro for the inhibition of [3H]naltrexone in rat brain homogenates in the presence of standard at 4 nM dose.; type: functional
[6] = organism: Rattus norvegicus; test: Percent decrease in activity for the inhibition of [3H]naltrexone in rat brain homogenates in the presence of MnCl2 at dose of 4 nM compared with that of control (4080+/-138 cpm).; type: functional
[7] = organism: Rattus norvegicus; test: The compound was tested in vitro for the inhibition of [3H]-Naltrexone in rat brain homogenates in the presence of MnCl2 at 10 nM dose.; type: functional
[8] = organism: Rattus norvegicus; test: Percent decrease in activity for the inhibition of [3H]naltrexone in rat brain homogenates in the presence of NaCl and MnCl2 at dose of 4 nM compared with that of control (5840+/-72 cpm).; type: functional
[9] = organism: Rattus norvegicus; test: The compound was tested in vitro for the inhibition of [3H]naltrexone in rat brain homogenates in the presence of NaCl and MnCl2 at 10 nM dose.; type: functional, organism-based
[10] = organism: Rattus norvegicus; test: The compound was tested in vitro for the inhibition of [3H]-Naltrexone in rat brain homogenates in the presence of MnCl2 at 4 nM dose.; type: functional
[11] = organism: Rattus norvegicus; test: Percent decrease in activity for the inhibition of [3H]-Naltrexone in rat brain homogenates in the presence of standard at dose of 10 nM compared with that of control (4930+/-143 cpm).; type: functional
[12] = organism: Rattus norvegicus; test: The compound was tested in vitro for the inhibition of [3H]-Naltrexone in rat brain homogenates in the presence of NaCl at 10 nM dose.; type: functional
[13] = organism: Rattus norvegicus; test: The compound was tested in vitro for the inhibition of [3H]naltrexone in rat brain homogenates in the presence of standard at 10 nM dose.; type: functional
[14] = organism: Rattus norvegicus; test: Percent decrease in activity for the inhibition of [3H]naltrexone in rat brain homogenates in the presence of standard at dose of 4 nM compared with that of control (4930+/-143 cpm).; type: functional
[15] = organism: Rattus norvegicus; test: Percent decrease in activity for the inhibition of [3H]naltrexone in rat brain homogenates in the presence of NaCl at dose of 4 nM compared with that of control (6070+/-75 cpm).; type: functional
[16] = organism: Rattus norvegicus; test: Percent decrease in activity for the inhibition of [3H]naltrexone in rat brain homogenates in the presence of MnCl2 at dose of 10 nM compared with that of control (4080+/-138 cpm).; type: functional
[17] = organism: Rattus norvegicus; test: The compound was tested in vitro for the inhibition of [3H]naltrexone in rat brain homogenates in the presence of MnCl2 at 10 nM dose

SMILES	Decrease [1] [%]	Analgesia [2] [%]	Decrease [3] [%]	Binding activity [5] [c.p.m.]	Binding activity [9] [c.p.m.]	Decrease [11] [%]	Binding activity [12] [c.p.m.]	Binding activity [13] [c.p.m.]	Decrease [14] [%]	Decrease [15] [%]	Decrease [16] [%]	also measured
N/N=C1/CC[C@@]2(O)[C@H]3Cc4ccc(O)c5c4[C@@]2(CCN3CC2CC2)[C@H]1O5 [NALTREXAZONE]	62	0	64	2980	2240	61	2200	1910	39	39	62	Binding activity [4]: 3480 c.p.m.; Decrease [6]: 38%; Binding activity [7]: 1550 c.p.m.; Decrease [8]: 40%; Binding activity [10]: 2570 c.p.m.
CN1CC[C@]23c4c5ccc(O)c4O[C@H]2C(=O)CC[C@@]3(O)[C@H]1C5 [OXYMORPHONE]	–	17	–	–	–	–	–	–	–	–	–	–
C=CCN1CC[C@]23c4c5ccc(O)c4O[C@H]2C(=O)CC[C@@]3(O)[C@H]1C5 [NALOXONE]	–	54	–	–	–	–	–	–	–	–	–	–
C=CCN1CC[C@]23c4c5ccc(O)c4O[C@H]2/C(=N\N)CC[C@@]3(O)[C@H]1C5 [NALOXAZONE]	–	0	24	–	–	11	4640	4400	–	–	23	Binding activity [17]: 3140 c.p.m.
O=C1CC[C@@]2(O)[C@H]3Cc4ccc(O)c5c4[C@@]2(CCN3CC2CC2)[C@H]1O5 [NALTREXONE]	–	67	–	–	–	–	–	–	–	–	–	–
CN1CC[C@]23c4c5ccc(O)c4O[C@H]2/C(=N\N)CC[C@@]3(O)[C@H]1C5 [OXYMORPHAZONE]	22	82	–	4860	4560	24	5520	3750	2	5	–	–
